# Source: PubChem BioAssay AID651867 (The Scripps Research Institute Molecular Screening Center, 2012)
# Target: Protein-arginine deiminase type-4 (Homo sapiens) (UniProt Q9UM07)
# Test: PubChem AID 651867
# Settings: recombinant PAD4, BAEE citrulline colorimetric, time-dependent inactivation; at 10 µM; hits give high values
# Chain of Protein-arginine deiminase type-4 (Homo sapiens) (Q9UM07 whole entry, looked up): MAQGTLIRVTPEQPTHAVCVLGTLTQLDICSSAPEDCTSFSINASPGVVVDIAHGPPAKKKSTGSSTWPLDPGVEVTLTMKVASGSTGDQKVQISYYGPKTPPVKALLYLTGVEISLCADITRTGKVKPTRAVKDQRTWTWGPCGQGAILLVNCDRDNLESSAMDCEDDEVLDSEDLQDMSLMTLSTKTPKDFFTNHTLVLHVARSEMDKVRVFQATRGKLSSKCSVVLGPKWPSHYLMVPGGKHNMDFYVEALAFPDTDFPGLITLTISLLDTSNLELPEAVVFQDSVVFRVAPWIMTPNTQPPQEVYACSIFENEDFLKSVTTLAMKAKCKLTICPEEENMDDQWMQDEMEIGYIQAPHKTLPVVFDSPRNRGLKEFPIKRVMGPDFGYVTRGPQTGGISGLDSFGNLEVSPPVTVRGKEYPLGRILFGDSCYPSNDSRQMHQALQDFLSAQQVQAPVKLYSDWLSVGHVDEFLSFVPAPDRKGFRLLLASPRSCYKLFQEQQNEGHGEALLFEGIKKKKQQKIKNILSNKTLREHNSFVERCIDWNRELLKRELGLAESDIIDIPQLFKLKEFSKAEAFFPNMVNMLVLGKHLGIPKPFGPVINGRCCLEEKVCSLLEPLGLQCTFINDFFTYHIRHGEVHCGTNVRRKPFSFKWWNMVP
smiles,measurement,value
NC1=CC(=O)c2ccc(-c3cccc(C(=O)O)n3)nc2C1=O,kinact/KI,88.3 M⁻¹ s⁻¹
